Literature values as cited in publication PMC5111556 (Organic & biomolecular chemistry, 2016).

System: αvβ3

Cilengitide
αvβ3-targeted antiangiogenic therapy (in words): initial promise
